Converted amounts (≈) assume the structure as drawn. Where two headings read alike, the source gives them in different places.
Tests used:
[1] = Solubility in water of the prepared product
[2] = physchem; conditions: pH 7, aqueous buffer
[3] = human, 20 % (suspension in the donor), pH 7.4
[4] = hairless, mouse, in vivo
[5] = tested on: rats; conditions: rat, in vivo, po, 100 mg/kg/day, 21 days
[6] = tested on: rats; experiment: Antipyretic activity, E. coli suspension as pyrogen, body temperature; assay type: in vivo; conditions: for body temperature t=0 min / body temperature t=90 min / body temperature t=180 min. / body temperature t=270 min.: in °C (unit assumed)
Description: Antipyretic activity: Rats received a sterilized E. coli suspension as a pyrogen. 56 rats were divided into 7 groups. The control group is group A. 2 hours later, Aspirin (ASA, B1 for 100mg/kg and B2 for 150mg/kg) and diethylaminoethyl acetylsalicylate.AcOH (DEAE-ASA, C1 for 100mg/kg and C2 for 150 mg) were administered orally and diethylaminoethyl acetylsalicylate.AcOH (DEAE-ASA, D1 for 100 mg and D2 for 150 mg/kg) were administered transdermally. The body temperature of rats was taken at 90 min. intervals before and after the administration of the test compounds.

[7] = Half-life in whole human blood
From the text: (§3) To determine how much the pro-drugs of acetylsalicylic acid were changed back to the drug itself or diethylaminoethyl salicylate, we diluted whole human blood 20 times with a pH 7.4 phosphate buffer (0.2M).

[8] = cited from earlier work
[9] = tested on: mice; experiment: Analgetic activity, acetic acid writhing test; assay type: in vivo; conditions: for inhibition at 50 mg/kg / inhibition at 100 mg/kg: Mus musculus, po, read-out: % (rate of writhings inhibition)
Description: The number of writhings that occurred when mice were administered an acetic acid solution intraperitoneally were counted, and the rate of inhibition based on the control group was calculated. 42 mice were divided into 7 groups (6 mice each). Aspirin (ASA, 50 mg/kg and 100 g) was administered to groups B1 and B2 of mice and diethylaminoethyl acetylsalicylate.AcOH (DEAE-ASA, 50 mg and 100 mg/kg) was administered orally to groups C1 and C2. Diethylaminoethyl acetylsalicylate.AcOH (DEAE-ASA, 50 mg and 100 mg/kg) was administered transdermally to groups D1 and D2. The A group is the control group. The test compounds were administered to the mice 30 minutes before the acetic acid solution was administered.

[10] = In vivo penetration through the skin of intact hairless mice, plasma levels of salicylic acid by HPLC
[11] = tested on: rats; experiment: Anti-inflammatory activity, carrageenin hind paw swelling; assay type: in vivo; conditions: 50mg/kg, oral administration and transdermal administration, Figure 4
Description: Anti-inflammatory activity: 50 mg/kg of diethylaminoethyl acetylsalicylate.AcOH was administered orally or transdermally to rats and 50 mg/kg of aspirin was administered orally. 60 minutes later, a carrageenin solution was administered subcutaneously to the foot pads of the rats. The volume of the hind paw was measured at every hour after the administration of the carrageenin, and the rate of increase in the volume of the paw was calculated and designated as the rate of swelling(%).
(§1) • Figure 1: Cumulative amounts of acetylsalicylic acid (ASA), ethyl acetylsalicylate(E-ASA), and diethylaminoethyl acetylsalicylate.AcOH(DEAE-ASA) crossing isolated human skin tissue in Franz cells (n=5). […] In each case, the vehicle was pH 7.4 phosphate buffer (0.2 M). • Figure 2: Total plasma levels of salicylic acid (SA) after topical application of 300 mg of acetylsalicylic acid (ASA) or diethylaminoethyl acetylsalicylate.AcOH (DEAE-ASA) to the backs of hairless mice (n=5). • Figure 3. […] A is the control line. • Figure 4. […] A is the control line.

[12] = Solubility in pH 7 phosphate buffer; conditions: pH 7, aqueous buffer
[13] = In vitro penetration through human skin, modified Franz cells, HPLC
[14] = tested on: mice; experiment: Analgetic activity, prolongation of pain threshold of mouse tail (D'Amour-Smith Method); assay type: in vivo; conditions: versus 200mg/kg aspirin, Figure 3
Description: Analgetic activity: The prolongation time of pain the threshold of a mouse tail was determined in accordance with the D'Amour-Smith Method (J. Pharmacol. Exp. Ther., 72, 74(1941)).
as §1

[15] = Acute toxicity, oral LD50; assay type: in vivo; conditions: rat, in vivo, rats, read-out: LD50 orally in rats
From the text: (§2) The acute toxicity of the pro-drugs were investigated.

[16] = Conversion of pro-drug in whole human blood diluted 20 times with pH 7.4 phosphate buffer, HPLC; conditions: whole human blood diluted 20 times with pH 7.4 phosphate buffer (0.2M)
From the text: as §3

[17] = tested on: rats; experiment: Gastroduodenal bleeding (fecal blood) after 21 days of oral dosing; conditions: 100 mg/kg per day orally for 21 days
[18] = physchem
[19] = tested on: rats; experiment: Acute toxicity, oral LD50; assay type: in vivo; conditions: unit printed as g
From the text: as §2

[20] = 50 mg/kg, groups B1 (ASA) and C1 (DEAE-ASA orally), 30 minutes before acetic acid
[21] = 100 mg/kg, groups B2 (ASA) and C2 (DEAE-ASA orally), 30 minutes before acetic acid
[22] = 50 mg/kg, groups B1 (ASA) and C1 (DEAE-ASA orally)
[23] = 100 mg/kg, groups B2 (ASA) and C2 (DEAE-ASA orally)
[24] = 50 mg/kg transdermally, group D1
[25] = 100 mg/kg transdermally, group D2

## CCN(CC)CCCNC(=O)c1ccccc1OC(C)=O [N-diethylaminopropyl acetylsalicylamide.AcOH]
[1]
  solubility: 280 mg/mL (≈ 958 mM)

## CC(=O)Oc1ccccc1C(=O)NCCN(C)C [N-dimethylaminoethyl acetylsalicylamide.AcOH]
[1]
  solubility: 350 mg/mL (≈ 1400 mM)

## CC(=O)Oc1ccccc1C(=O)SCCN(C)C [S-dimethylaminoethyl acetylthiosalicylate.AcOH]
[1]
  solubility: 320 mg/mL (≈ 1200 mM)

## CC(=O)Oc1ccccc1C(=O)O [acetylsalicylic acid, reference compound]
[2]
  solubility: 0.01 mg/mL (≈ 0.0555 mM)
[3]
  Apparent flux values: 0.25 mg/cm^2/h
[4]
  time to peak levels of salicylic acid in plasma after application of the donor systems: ~20 min
[5]
  average fecal blood: 5 mg of fecal blood per gram of feces
[6]; 100mg/kg orally
  body temperature t=0 min: 37.22±0.05
  body temperature t=90 min: 36.80±0.05
  body temperature t=180 min.: 36.85±0.05
  body temperature t=270 min.: 36.81±0.05
[6]; 150mg/kg orally
  body temperature t=0 min: 37.30±0.06
  body temperature t=90 min: 36.50±0.05
  body temperature t=180 min.: 36.59±0.05
  body temperature t=270 min.: 36.55±0.05
[7]
  half-life: 15 min
[8]
  half live in plasma: ~15 min
[9]; [20]
  No. of Writhings: 18.2
[9]; [21]
  No. of Writhings: 13.2
[9]; [22]
  inhibition at 50 mg/kg: 45%
[9]; [23]
  inhibition at 100 mg/kg: 60%

## CCN(CC)CCOC(=O)c1ccccc1OC(C)=O [diethylaminoethyl acetylsalicylate.AcOH]
[1]
  solubility: 300 mg/mL (≈ 1070 mM)
[10]; pro-drug donor versus acetylsalicylic acid donor
  difference of peak plasma levels: approximately 100 times
[10]; topical, 30% in 1 mL isopropanol on 1 cm^2 of the back, hairless mice
  peak plasma level of salicylic acid: ~10 mg/mL
[10]; versus 0.15-0.3 mg/ml
  peak plasma level times higher than the salicylate plasma level for effective analgesia: 33-67 times
[10]; versus 0.2-0.3 mg/ml
  peak plasma level times higher than the salicylate plasma level for effective anti-inflammatory activity: 33-50 times
[11]
  Anti-inflammatory activity (rate of swelling) compared with aspirin: better Anti-inflammatory activity than that of aspirin
[12]
  solubility: > 300 mg/mL
[13]; isolated human skin, Franz cells, donor 20% suspension or 20% solution in pH 7.4 phosphate buffer (0.2M)
  Apparent flux values: 100 mg/cm^2/h
[13]; ratio versus acetylsalicylic acid
  diffuses through human skin times faster than acetylsalicylic acid itself: ~400 times
[13]; ratio versus ethyl acetylsalicylate
  diffuses through human skin times faster than ethyl acetylsalicylate: ~100 times
[14]; 200 mg/kg orally (C)
  analgetic activity (prolongation time of pain threshold): stronger analgetic activity
[14]; 200 mg/kg transdermally (D)
  analgetic activity (prolongation time of pain threshold): stronger analgetic activity
[15]
  LD50: 2300 mg/kg
[6]; 100 mg/kg dose, summary of Table 2
  antipyretic activity compared with aspirin: some better than aspirin
[6]; 100mg/kg orally
  body temperature t=0 min: 37.25±0.09
  body temperature t=90 min: 36.40±0.15
  body temperature t=180 min.: 36.50±0.09
  body temperature t=270 min.: 36.40±0.15
[6]; 100mg/kg transdermally
  body temperature t=0 min: 37.19±0.07
  body temperature t=90 min: 36.40±0.05
  body temperature t=180 min.: 36.38±0.05
  body temperature t=270 min.: 36.40±0.15
[6]; 150mg/kg orally
  body temperature t=0 min: 37.18±0.07
  body temperature t=90 min: 36.30±0.15
  body temperature t=180 min.: 36.28±0.07
  body temperature t=270 min.: 36.20±0.09
[6]; 150mg/kg transdermally
  body temperature t=0 min: 37.33±0.05
  body temperature t=90 min: 36.27±0.15
  body temperature t=180 min.: 36.26±0.07
  body temperature t=270 min.: 36.22±0.08
[6]; summary of Table 2
  antipyretic activity, transdermal versus oral administration: better than oral administration
[7]; blood
  half-life: ~4 min
[9]; [24]
  % (rate of writhings inhibition): 56%
  No. of Writhings: 14.5
[9]; [20]
  No. of Writhings: 15.4
[9]; [25]
  % (rate of writhings inhibition): 70%
  No. of Writhings: 10.1
[9]; [21]
  No. of Writhings: 11
[9]; [22]
  inhibition at 50 mg/kg: 54%
[9]; [23]
  inhibition at 100 mg/kg: 67%
[9]; writhing test, summary of Table 1
  analgetic activity compared with aspirin: better analgetic activity than aspirin
[16]
  pro-drug changed back to the drug itself: 80%
[17]
  average fecal blood: none

## CC(=O)Oc1ccccc1C(=O)OCCN(C)C [dimethylaminoethyl acetylsalicylate.AcOH]
[18]
  solubility: 350 mg/mL (≈ 1390 mM)
[19]
  LD50 orally in rats: 2.2 g

## CCCN(CCC)CCOC(=O)c1ccccc1OC(C)=O [dipropylaminoethyl acetylsalicylate.AcOH]
[1]
  solubility: 300 mg/mL (≈ 976 mM)

## CCOC(=O)c1ccccc1OC(C)=O [ethyl acetylsalicylate]
[3]
  Apparent flux values: 1 mg/cm^2/h
  penetration rate difference between ethyl acetylsalicylate and acetylsalicylic acid: 4 times

## O=C(O)c1ccccc1O [salicylic acid]
[4]
  peak plasma level of salicylic acid: ~0.01 mg/mL

## S-diethylaminoethyl propionylthiosalicylate.AcOH
[1]
  Solubility in water: 280 mg/mL

From EP2610242A1, “Positively charged water-soluble prodrugs of aspirin” (Techfields Biochem Co. Ltd, priority 2006, dated 2008)
